{
  "source": "patent US9981951B2",
  "about": "“Crystalline and amorphous forms of Olaparib” (Olon S.P.A., priority 2015, dated 2018)",
  "type_in_all_cases": "physicochemical",
  "key": {"[1]": {"test": "stability of the solid form (air, moisture, heat)"}, "[2]": {"test": "solubility in various organic solvents and in water", "details": "compared with crystalline forms A and L of Olaparib"}, "hygroscopicity": {"test": "hygroscopicity"}},
  "data": [
    {"molecule": "O=C(c1cc(Cc2n[nH]c(=O)c3ccccc23)ccc1F)N1CCN(C(=O)C2CC2)CC1", "note": "[4-[3-(4-cyclopropanecarbonyl-piperazine-1-carbonyl)-4-fluorobenzyl]-2H-phthalazin-2-one]", "values": [
      {"measurement": "stability to air and heat", "setting": "[1]; air and heat, long time (30 days)", "result": "stable to air and heat for a long time (30 days)"},
      {"measurement": "stability when exposed to a water-saturated environment", "setting": "[1]; water-saturated environment", "result": "maintains its original physicochemical characteristics"}
    ]},
    {"molecule": "O=C(c1cc(Cc2n[nH]c(=O)c3ccccc23)ccc1F)N1CCN(C(=O)C2CC2)CC1", "note": "[amorphous form of Olaparib, 4-[3-(4-cyclopropanecarbonyl-piperazine-1-carbonyl)-4-fluorobenzyl]-2H-phthalazin-2-one]", "values": [
      {"measurement": "solubility in various organic solvents and in water", "setting": "[2]", "result": "better solubility"},
      {"measurement": "hygroscopicity", "setting": "hygroscopicity", "result": "not hygroscopic"},
      {"measurement": "stability if exposed to the moisture in the air", "setting": "[1]; exposed to the moisture in the air", "result": "stable"}
    ]}
  ]
}
